Molecular target: T1, Human factor Xa (Homo sapiens, UniProt P00742)
T1 construct: leads from XII to XIIa to XIa to IXa and to the conversion of X to Xa; purchased Enzyme Research Laboratories, South Bend IN
Experiment: Xa Assay
Assay type: biochemical
Details: % inhibition at 30 µM (cells with % or %@30, bare 0)

T1 sequence (P00742 235-488 limits assumed): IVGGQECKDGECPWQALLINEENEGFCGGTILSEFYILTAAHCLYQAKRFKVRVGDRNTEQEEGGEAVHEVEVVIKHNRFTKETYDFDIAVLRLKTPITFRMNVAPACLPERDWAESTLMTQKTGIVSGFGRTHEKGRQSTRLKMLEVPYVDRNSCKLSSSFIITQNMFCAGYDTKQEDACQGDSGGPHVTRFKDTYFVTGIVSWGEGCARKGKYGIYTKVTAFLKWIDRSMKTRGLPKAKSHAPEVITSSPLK
T1 sequence (P00742 41-179 limits assumed): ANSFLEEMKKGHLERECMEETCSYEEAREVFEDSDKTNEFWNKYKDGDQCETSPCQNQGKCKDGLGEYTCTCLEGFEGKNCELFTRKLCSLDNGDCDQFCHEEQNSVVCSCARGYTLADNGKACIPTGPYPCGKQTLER

N=C(N)c1ccc(CNC(=O)Cn2c(-c3ccc4c(c3)OCO4)c(Cl)nc(NCc3ccncc3)c2=O)cc1 [1471-43]
IC50 or % Inhibition Factor Xa (30 µM): 18%

N=C(N)c1ccc(CNC(=O)Cn2c(-c3ccc4c(c3)OCO4)c(Cl)nc(NCCc3ccncc3)c2=O)cc1 [1471-45]
IC50 or % Inhibition Factor Xa (30 µM): 24%

N=C(N)c1ccc(CNC(=O)Cn2c(-c3ccc4c(c3)OCO4)c(Cl)nc(NCCc3cccc(Cl)c3)c2=O)cc1 [1471-46]
IC50 or % Inhibition Factor Xa (30 µM): 21%

N=C(N)c1ccc(CNC(=O)Cn2c(-c3ccc4c(c3)OCO4)c(Cl)nc(NCCc3ccccc3)c2=O)cc1 [1471-47]
IC50 or % Inhibition Factor Xa (30 µM): 22%

N=C(N)c1ccc(CNC(=O)Cn2c(-c3ccc4c(c3)OCO4)c(Cl)nc(NCCc3cccnc3)c2=O)cc1 [1471-48]
IC50 or % Inhibition Factor Xa (30 µM): 17%

CCc1c(Cl)nc(NCCc2ccc(Cl)cc2)c(=O)n1CC(=O)NCc1ccc(C(=N)N)cc1 [1471-58]
IC50 or % Inhibition Factor Xa (30 µM): 0%

CCc1c(Cl)nc(NCc2ccncc2)c(=O)n1CC(=O)NCc1ccc(C(=N)N)cc1 [1471-59]
IC50 or % Inhibition Factor Xa (30 µM): 0%

CCc1c(Cl)nc(NCCN2CCOCC2)c(=O)n1CC(=O)NCc1ccc(C(=N)N)cc1 [1471-60]
IC50 or % Inhibition Factor Xa (30 µM): 0%

CCc1c(Cl)nc(NCCc2ccncc2)c(=O)n1CC(=O)NCc1ccc(C(=N)N)cc1 [1471-61]
IC50 or % Inhibition Factor Xa (30 µM): 0%

CCc1c(Cl)nc(NCCc2ccccc2)c(=O)n1CC(=O)NCc1ccc(C(=N)N)cc1 [1471-63]
IC50 or % Inhibition Factor Xa (30 µM): 2%

CCc1c(Cl)nc(NCCc2cccnc2)c(=O)n1CC(=O)NCc1ccc(C(=N)N)cc1 [1471-64]
IC50 or % Inhibition Factor Xa (30 µM): 2%

N=C(N)c1ccc(CNC(=O)Cn2c(-c3ccccc3)c(Cl)nc(NC3CCc4ccccc43)c2=O)cc1 (stereo not drawn) [1507-02]
IC50 or % Inhibition Factor Xa (30 µM): 9%

N=C(N)c1ccc(CNC(=O)Cn2c(-c3ccccc3)c(Cl)nc(NCc3ccccc3Cl)c2=O)cc1 [1507-03]
IC50 or % Inhibition Factor Xa (30 µM): 21%

N=C(N)c1ccc(CNC(=O)Cn2c(-c3ccccc3)c(Cl)nc(NCCCn3ccnc3)c2=O)cc1 [1507-05]
IC50 or % Inhibition Factor Xa (30 µM): 10%

N=C(N)c1ccc(CNC(=O)Cn2c(-c3ccccc3)c(Cl)nc(NCC(c3ccccc3)c3ccccc3)c2=O)cc1 [1507-09]
IC50 or % Inhibition Factor Xa (30 µM): 13%

N=C(N)c1ccc(CNC(=O)Cn2c(-c3ccccc3)c(Cl)nc(NC3CCCc4ccccc43)c2=O)cc1 (stereo not drawn) [1507-16]
IC50 or % Inhibition Factor Xa (30 µM): 18%

N=C(N)c1ccc(CNC(=O)Cn2c(-c3ccccc3)c(Cl)nc(NCCC3=CCCCC3)c2=O)cc1 [1507-17]
IC50 or % Inhibition Factor Xa (30 µM): 16%

N=C(N)c1ccc(CNC(=O)Cn2c(-c3ccccc3)c(Cl)nc(NCCCN3CCCC3=O)c2=O)cc1 [1507-19]
IC50 or % Inhibition Factor Xa (30 µM): 4%

N=C(N)c1ccc(CNC(=O)Cn2c(-c3ccccc3)c(Cl)nc(NC3CCC3)c2=O)cc1 [1507-21]
IC50 or % Inhibition Factor Xa (30 µM): 23%

N=C(N)c1ccc(CNC(=O)Cn2c(-c3ccccc3)c(Cl)nc(NC3CCCCCC3)c2=O)cc1 [1507-29]
IC50 or % Inhibition Factor Xa (30 µM): 4%

N=C(N)c1ccc(CNC(=O)Cn2c(-c3ccccc3)c(Cl)nc(NC(c3ccccc3)c3ccccc3)c2=O)cc1 [1507-35]
IC50 or % Inhibition Factor Xa (30 µM): 28%

N=C(N)c1ccc(CNC(=O)Cn2c(-c3ccccc3)c(Cl)nc(NC3CCS(=O)(=O)C3)c2=O)cc1 (stereo not drawn) [1507-36]
IC50 or % Inhibition Factor Xa (30 µM): 0%

N=C(N)c1ccc(CNC(=O)Cn2c(-c3ccccc3)c(Cl)nc(NCc3cc(C(F)(F)F)cc(C(F)(F)F)c3)c2=O)cc1 [1507-40]
IC50 or % Inhibition Factor Xa (30 µM): 11%

N=C(N)c1ccc(CNC(=O)Cn2c(-c3ccccc3)c(Cl)nc(NCCCCc3ccccc3)c2=O)cc1 [1507-43]
IC50 or % Inhibition Factor Xa (30 µM): 21%

N=C(N)c1ccc(CNC(=O)Cn2c(-c3ccccc3)c(Cl)nc(NCCc3ccc(Cl)c(Cl)c3)c2=O)cc1 [1507-44]
IC50 or % Inhibition Factor Xa (30 µM): 9%

N=C(N)c1ccc(CNC(=O)Cn2c(-c3ccccc3)c(Cl)nc(NCc3ccc(Cl)cc3)c2=O)cc1 [1507-46]
IC50 or % Inhibition Factor Xa (30 µM): 8%

CN(C)CCCNc1nc(Cl)c(-c2ccccc2)n(CC(=O)NCc2ccc(C(=N)N)cc2)c1=O [1507-47]
IC50 or % Inhibition Factor Xa (30 µM): 19%

N=C(N)c1ccc(CNC(=O)Cn2c(-c3ccccc3)c(Cl)nc(NCC3COc4ccccc4O3)c2=O)cc1 (stereo not drawn) [1512-01]
IC50 or % Inhibition Factor Xa (30 µM): 4%

COc1cccc(CNc2nc(Cl)c(-c3ccccc3)n(CC(=O)NCc3ccc(C(=N)N)cc3)c2=O)c1OC [1512-02]
IC50 or % Inhibition Factor Xa (30 µM): 3%

COc1ccc(CCNc2nc(Cl)c(-c3ccccc3)n(CC(=O)NCc3ccc(C(=N)N)cc3)c2=O)cc1OC [1512-05]
IC50 or % Inhibition Factor Xa (30 µM): 10%

N=C(N)c1ccc(CNC(=O)Cn2c(-c3ccccc3)c(Cl)nc(NCCCc3ccccc3)c2=O)cc1 [1512-06]
IC50 or % Inhibition Factor Xa (30 µM): 4%

CCOc1ccccc1CNc1nc(Cl)c(-c2ccccc2)n(CC(=O)NCc2ccc(C(=N)N)cc2)c1=O [1512-11]
IC50 or % Inhibition Factor Xa (30 µM): 5%

CCCCC(CC)Nc1nc(Cl)c(-c2ccccc2)n(CC(=O)NCc2ccc(C(=N)N)cc2)c1=O (stereo not drawn) [1512-12]
IC50 or % Inhibition Factor Xa (30 µM): 5%

CCCCNc1nc(Cl)c(-c2ccccc2)n(CC(=O)NCc2ccc(C(=N)N)cc2)c1=O [1512-14]
IC50 or % Inhibition Factor Xa (30 µM): 7%

CN(C)CCNc1nc(Cl)c(-c2ccccc2)n(CC(=O)NCc2ccc(C(=N)N)cc2)c1=O [1512-15]
IC50 or % Inhibition Factor Xa (30 µM): 6%

N=C(N)c1ccc(CNC(=O)Cn2c(-c3ccccc3)c(Cl)nc(NC3CCCCCC3)c2=O)cc1 [1512-16]
IC50 or % Inhibition Factor Xa (30 µM): 10%

N=C(N)c1ccc(CNC(=O)Cn2c(-c3ccccc3)c(Cl)nc(NC3CCS(=O)(=O)C3)c2=O)cc1 (stereo not drawn) [1512-19]
IC50 or % Inhibition Factor Xa (30 µM): 3%

CC1CCCC(Nc2nc(Cl)c(-c3ccccc3)n(CC(=O)NCc3ccc(C(=N)N)cc3)c2=O)C1C (stereo not drawn) [1512-23]
IC50 or % Inhibition Factor Xa (30 µM): 6%

N=C(N)c1ccc(CNC(=O)Cn2c(-c3ccccc3)c(Cl)nc(NCc3ccc(C(F)(F)F)cc3F)c2=O)cc1 [1512-26]
IC50 or % Inhibition Factor Xa (30 µM): 5%

N=C(N)c1ccc(CNC(=O)Cn2c(-c3ccccc3)c(Cl)nc(NCc3cc(C(F)(F)F)ccc3F)c2=O)cc1 [1512-27]
IC50 or % Inhibition Factor Xa (30 µM): 3%

N=C(N)c1ccc(CNC(=O)Cn2c(-c3ccccc3)c(Cl)nc(NCc3cc(F)c(F)c(F)c3)c2=O)cc1 [1512-32]
IC50 or % Inhibition Factor Xa (30 µM): 5%

N=C(N)c1ccc(CNC(=O)Cn2c(-c3ccccc3)c(Cl)nc(NCc3cc(Cl)ccc3Cl)c2=O)cc1 [1512-35]
IC50 or % Inhibition Factor Xa (30 µM): 4%

N=C(N)c1ccc(CNC(=O)Cn2c(-c3ccccc3)c(Cl)nc(NCc3cc(F)ccc3F)c2=O)cc1 [1512-36]
IC50 or % Inhibition Factor Xa (30 µM): 9%

N=C(N)c1ccc(CNC(=O)Cn2c(-c3ccccc3)c(Cl)nc(NCc3cc(F)cc(F)c3)c2=O)cc1 [1512-39]
IC50 or % Inhibition Factor Xa (30 µM): 4%

N=C(N)c1ccc(CNC(=O)Cn2c(-c3ccccc3)c(Cl)nc(NCCc3cccc(C(F)(F)F)c3)c2=O)cc1 [1512-41]
IC50 or % Inhibition Factor Xa (30 µM): 4%

N=C(N)c1ccc(CNC(=O)Cn2c(-c3ccccc3)c(Cl)nc(NCc3ccccc3OC(F)(F)F)c2=O)cc1 [1512-42]
IC50 or % Inhibition Factor Xa (30 µM): 1%

N=C(N)c1ccc(CNC(=O)Cn2c(-c3ccccc3)c(Cl)nc(NCc3c(F)cccc3F)c2=O)cc1 [1512-43]
IC50 or % Inhibition Factor Xa (30 µM): 9%

CN1CCCC1CCNc1nc(Cl)c(-c2ccccc2)n(CC(=O)NCc2ccc(C(=N)N)cc2)c1=O (stereo not drawn) [1512-46]
IC50 or % Inhibition Factor Xa (30 µM): 10%

N=C(N)c1ccc(CNC(=O)Cn2c(-c3ccccc3)c(Cl)nc(NCCc3ccccn3)c2=O)cc1 [1512-47]
IC50 or % Inhibition Factor Xa (30 µM): 13%

N=C(N)c1ccc(CNC(=O)Cn2c(-c3ccsc3)c(Cl)nc(NCc3ccccc3)c2=O)cc1 [1517-01]
IC50 or % Inhibition Factor Xa (30 µM): 0%

C[C@@H](C(=O)NCc1ccc(C(=N)N)cc1)n1c(-c2ccccc2)c(Cl)nc(NCc2ccccc2)c1=O [1517-03]
IC50 or % Inhibition Factor Xa (30 µM): 0%

CSCC(C(=O)NCc1ccc(C(=N)N)cc1)n1c(-c2ccccc2)c(Cl)nc(NCc2ccccc2)c1=O (stereo not drawn) [1517-04]
IC50 or % Inhibition Factor Xa (30 µM): 0%

C[C@H](C(=O)NCc1ccc(C(=N)N)cc1)n1c(-c2ccccc2)c(Cl)nc(NCc2ccccc2)c1=O [1517-05]
IC50 or % Inhibition Factor Xa (30 µM): 0%

N=C(N)c1ccc(CNC(=O)Cn2c(-c3c(Cl)cccc3Cl)c(Cl)nc(NCc3ccccc3)c2=O)cc1 [1517-06]
IC50 or % Inhibition Factor Xa (30 µM): 0%

N=C(N)c1ccc(CNC(=O)Cn2c(-c3ccsc3)c(Cl)nc(NC3CCC3)c2=O)cc1 [1517-07]
IC50 or % Inhibition Factor Xa (30 µM): 0%

C[C@@H](C(=O)NCc1ccc(C(=N)N)cc1)n1c(-c2ccccc2)c(Cl)nc(NC2CCC2)c1=O [1517-09]
IC50 or % Inhibition Factor Xa (30 µM): 0%

CSCC(C(=O)NCc1ccc(C(=N)N)cc1)n1c(-c2ccccc2)c(Cl)nc(NC2CCC2)c1=O (stereo not drawn) [1517-10]
IC50 or % Inhibition Factor Xa (30 µM): 0%

C[C@H](C(=O)NCc1ccc(C(=N)N)cc1)n1c(-c2ccccc2)c(Cl)nc(NC2CCC2)c1=O [1517-11]
IC50 or % Inhibition Factor Xa (30 µM): 0%

N=C(N)c1ccc(CNC(=O)Cn2c(-c3c(Cl)cccc3Cl)c(Cl)nc(NC3CCC3)c2=O)cc1 [1517-12]
IC50 or % Inhibition Factor Xa (30 µM): 0%

N=C(N)c1ccc(CNC(=O)Cn2c(-c3ccsc3)c(Cl)nc(NCCc3ccccc3)c2=O)cc1 [1517-13]
IC50 or % Inhibition Factor Xa (30 µM): 0%

C[C@@H](C(=O)NCc1ccc(C(=N)N)cc1)n1c(-c2ccccc2)c(Cl)nc(NCCc2ccccc2)c1=O [1517-15]
IC50 or % Inhibition Factor Xa (30 µM): 0%

CSCC(C(=O)NCc1ccc(C(=N)N)cc1)n1c(-c2ccccc2)c(Cl)nc(NCCc2ccccc2)c1=O (stereo not drawn) [1517-16]
IC50 or % Inhibition Factor Xa (30 µM): 0%

C[C@H](C(=O)NCc1ccc(C(=N)N)cc1)n1c(-c2ccccc2)c(Cl)nc(NCCc2ccccc2)c1=O [1517-17]
IC50 or % Inhibition Factor Xa (30 µM): 0%

N=C(N)c1ccc(CNC(=O)Cn2c(-c3c(Cl)cccc3Cl)c(Cl)nc(NCCc3ccccc3)c2=O)cc1 [1517-18]
IC50 or % Inhibition Factor Xa (30 µM): 0%

N=C(N)c1ccc(CNC(=O)Cn2c(-c3ccsc3)c(Cl)nc(NCCc3cccc(Cl)c3)c2=O)cc1 [1517-19]
IC50 or % Inhibition Factor Xa (30 µM): 0%

C[C@H](C(=O)NCc1ccc(C(=N)N)cc1)n1c(-c2ccccc2)c(Cl)nc(NCCc2cccc(Cl)c2)c1=O [1517-23]
IC50 or % Inhibition Factor Xa (30 µM): 0%
